ChEMBL document CHEMBL5131408, “Novel O-acylated amidoximes and substituted 1,2,4-oxadiazoles synthesised from (+)-ketopinic acid possessing potent virus-inhibiting activity against phylogenetically distinct influenza A viruses” (Bioorg Med Chem Lett, 2022)

test system: not listed separately; assay: Cytotoxicity against MDCK cells infected with Influenza A virus A/Puerto Rico/8/34 (H1N1) assessed as reduction in cell viability; type: toxicity, cell-based, Canis lupus familiaris; conditions: dog

Row | Compound | CC50
1 | CC1(C)[C@@H]2CC[C@@]1(C(=O)O/N=C(\N)Cc1cccc(F)c1)C(=O)C2 | 830 µM
2 | CN(C)Cc1noc([C@]23CC[C@H](CC2=O)C3(C)C)n1 | > 1190 µM
3 | CC1(C)[C@@H]2CC[C@@]1(C(=O)O/N=C(\N)Cc1ccc(Br)cc1)C(=O)C2 | 46 µM
4 | CC(N)C12CC3CC(CC(C3)C1)C2 (centres undefined) [RIMANTADINE] | 379 µM
5 | CC1(C)[C@@H]2CC[C@@]1(C(=O)O/N=C(\N)Cc1ccc(F)cc1)C(=O)C2 | 244 µM
6 | C/C(N)=N/OC(=O)[C@]12CC[C@H](CC1=O)C2(C)C | 545 µM
7 | CC1(C)[C@@H]2CC[C@@]1(c1nc(Cc3ccccc3F)no1)C(=O)C2 | 394 µM
8 | CC(C)(C)c1noc([C@]23CC[C@H](CC2=O)C3(C)C)n1 | 1140 µM
9 | CC1(C)[C@@H]2CC[C@@]1(c1nc(Cc3ccc(F)cc3)no1)C(=O)C2 | 497 µM
10 | CC1(C)[C@@H]2CC[C@@]1(c1nc(-c3ccccc3F)no1)C(=O)C2 | 455 µM
11 | CC1(C)[C@@H]2CC[C@@]1(C(=O)O/N=C(\N)c1ccc(C(F)(F)F)cc1)C(=O)C2 | > 1060 µM
12 | CCc1noc([C@]23CC[C@H](CC2=O)C3(C)C)n1 | > 763 µM
13 | CC(C)c1noc([C@]23CC[C@H](CC2=O)C3(C)C)n1 | 897 µM
14 | CC1(C)[C@@H]2CC[C@@]1(c1nc(-c3ccc(Br)cc3)no1)C(=O)C2 | 37 µM
15 | CC(C)(C)/C(N)=N/OC(=O)[C@]12CC[C@H](CC1=O)C2(C)C | > 1140 µM
16 | CC1(C)[C@@H]2CC[C@@]1(C(=O)O/N=C(\N)c1ccccc1)C(=O)C2 | 290 µM
17 | CC1(C)[C@@H]2CC[C@@]1(c1nc(-c3ccc(C(F)(F)F)cc3)no1)C(=O)C2 | 32 µM
18 | CC1(C)[C@@H]2CC[C@@]1(C(=O)O/N=C(\N)Cc1ccccc1F)C(=O)C2 | 877 µM
19 | CC1(C)[C@@H]2CC[C@@]1(C(=O)O/N=C(\N)Cc1ccc(Cl)cc1)C(=O)C2 | 73 µM
20 | CC1(C)[C@@H]2CC[C@@]1(C(=O)O/N=C(\N)c1ccccc1F)C(=O)C2 | 238 µM
21 | Cc1noc([C@]23CC[C@H](CC2=O)C3(C)C)n1 | > 904 µM

test system: not listed separately; assay: Selectivity index, ratio of CC50 for cytotoxicity against MDCK cells infected with Influenza A virus A/Puerto Rico/8/34 (H1N1) to IC50 for antiviral activity against Influenza A virus A/Puerto Rico/8/34 (H1N1) infected in MDCK cells; type: toxicity, cell-based; conditions: dog; read-out: Ratio CC50/IC50

Row | Compound | selectivity ratio
22 | CC1(C)[C@@H]2CC[C@@]1(C(=O)O/N=C(\N)Cc1cccc(F)c1)C(=O)C2 | 3
23 | CN(C)Cc1noc([C@]23CC[C@H](CC2=O)C3(C)C)n1 | 1
24 | CC1(C)[C@@H]2CC[C@@]1(C(=O)O/N=C(\N)Cc1ccc(Br)cc1)C(=O)C2 | 4
25 | CC(N)C12CC3CC(CC(C3)C1)C2 (centres undefined) [RIMANTADINE] | 6
26 | CC1(C)[C@@H]2CC[C@@]1(C(=O)O/N=C(\N)Cc1ccc(F)cc1)C(=O)C2 | < 2
27 | C/C(N)=N/OC(=O)[C@]12CC[C@H](CC1=O)C2(C)C | 3
28 | CC1(C)[C@@H]2CC[C@@]1(c1nc(Cc3ccccc3F)no1)C(=O)C2 | 5
29 | CC(C)(C)c1noc([C@]23CC[C@H](CC2=O)C3(C)C)n1 | < 3
30 | CC1(C)[C@@H]2CC[C@@]1(c1nc(Cc3ccc(F)cc3)no1)C(=O)C2 | < 5
31 | CC1(C)[C@@H]2CC[C@@]1(c1nc(-c3ccccc3F)no1)C(=O)C2 | 37
32 | CC1(C)[C@@H]2CC[C@@]1(C(=O)O/N=C(\N)c1ccc(C(F)(F)F)cc1)C(=O)C2 | > 2
33 | CCc1noc([C@]23CC[C@H](CC2=O)C3(C)C)n1 | > 4
34 | CC(C)c1noc([C@]23CC[C@H](CC2=O)C3(C)C)n1 | 5
35 | CC1(C)[C@@H]2CC[C@@]1(c1nc(-c3ccc(Br)cc3)no1)C(=O)C2 | 6
36 | CC(C)(C)/C(N)=N/OC(=O)[C@]12CC[C@H](CC1=O)C2(C)C | 1
37 | CC1(C)[C@@H]2CC[C@@]1(C(=O)O/N=C(\N)c1ccccc1)C(=O)C2 | 5
38 | CC1(C)[C@@H]2CC[C@@]1(c1nc(-c3ccc(C(F)(F)F)cc3)no1)C(=O)C2 | 5
39 | CC1(C)[C@@H]2CC[C@@]1(C(=O)O/N=C(\N)Cc1ccccc1F)C(=O)C2 | 7
40 | CC1(C)[C@@H]2CC[C@@]1(C(=O)O/N=C(\N)Cc1ccc(Cl)cc1)C(=O)C2 | 5
41 | CC1(C)[C@@H]2CC[C@@]1(C(=O)O/N=C(\N)c1ccccc1F)C(=O)C2 | 5

test system: not listed separately; assay: Selectivity index, ratio of CC50 for cytotoxicity against MDCK cells infected with Influenza A virus A/Anhui/1/2013 (H7N9) to IC50 for antiviral activity against Influenza A virus A/Anhui/1/2013 (H7N9) infected in MDCK cells; type: toxicity, cell-based; conditions: dog; read-out: Ratio CC50/IC50

Row | Compound | selectivity ratio
42 | CC(N)C12CC3CC(CC(C3)C1)C2 (centres undefined) [RIMANTADINE] | 7

test system: Influenza A virus; assay: Antiviral activity against Influenza A virus A/Puerto Rico/8/34 (H1N1) infected in MDCK cells assessed as inhibition of viral replication; type: functional, organism-based; conditions: not given

Row | Compound | IC50
43 | CC1(C)[C@@H]2CC[C@@]1(C(=O)O/N=C(\N)Cc1cccc(F)c1)C(=O)C2 | > 318 µM
44 | CN(C)Cc1noc([C@]23CC[C@H](CC2=O)C3(C)C)n1 | 913 µM
45 | CC1(C)[C@@H]2CC[C@@]1(C(=O)O/N=C(\N)Cc1ccc(Br)cc1)C(=O)C2 | 12 µM
46 | CC(N)C12CC3CC(CC(C3)C1)C2 (centres undefined) [RIMANTADINE] | 64 µM
47 | CC1(C)[C@@H]2CC[C@@]1(C(=O)O/N=C(\N)Cc1ccc(F)cc1)C(=O)C2 | > 126 µM
48 | C/C(N)=N/OC(=O)[C@]12CC[C@H](CC1=O)C2(C)C | 175 µM
49 | CC1(C)[C@@H]2CC[C@@]1(c1nc(Cc3ccccc3F)no1)C(=O)C2 | 78 µM
50 | CC(C)(C)c1noc([C@]23CC[C@H](CC2=O)C3(C)C)n1 | > 382 µM
51 | CC1(C)[C@@H]2CC[C@@]1(c1nc(Cc3ccc(F)cc3)no1)C(=O)C2 | > 105 µM
52 | CC1(C)[C@@H]2CC[C@@]1(c1nc(-c3ccccc3F)no1)C(=O)C2 | 12 µM
53 | CC1(C)[C@@H]2CC[C@@]1(C(=O)O/N=C(\N)c1ccc(C(F)(F)F)cc1)C(=O)C2 | 547 µM
54 | CCc1noc([C@]23CC[C@H](CC2=O)C3(C)C)n1 | 193 µM
55 | CC(C)c1noc([C@]23CC[C@H](CC2=O)C3(C)C)n1 | 188 µM
56 | CC1(C)[C@@H]2CC[C@@]1(c1nc(-c3ccc(Br)cc3)no1)C(=O)C2 | 6 µM
57 | CC(C)(C)/C(N)=N/OC(=O)[C@]12CC[C@H](CC1=O)C2(C)C | 975 µM
58 | CC1(C)[C@@H]2CC[C@@]1(C(=O)O/N=C(\N)c1ccccc1)C(=O)C2 | 59 µM
59 | CC1(C)[C@@H]2CC[C@@]1(c1nc(-c3ccc(C(F)(F)F)cc3)no1)C(=O)C2 | 7 µM
60 | CC1(C)[C@@H]2CC[C@@]1(C(=O)O/N=C(\N)Cc1ccccc1F)C(=O)C2 | 124 µM
61 | CC1(C)[C@@H]2CC[C@@]1(C(=O)O/N=C(\N)Cc1ccc(Cl)cc1)C(=O)C2 | 15 µM
62 | CC1(C)[C@@H]2CC[C@@]1(C(=O)O/N=C(\N)c1ccccc1F)C(=O)C2 | 46 µM
63 | Cc1noc([C@]23CC[C@H](CC2=O)C3(C)C)n1 | > 904 µM

test system: Influenza A virus; assay: Antiviral activity against Influenza A virus A/Anhui/1/2013 (H7N9) infected in MDCK cells assessed as inhibition of viral replication; type: functional, organism-based; conditions: not given

Row | Compound | IC50
64 | CC(N)C12CC3CC(CC(C3)C1)C2 (centres undefined) [RIMANTADINE] | 51 µM
